# Assays:
# 11b-HSD2 [1] = target: T1, 11b-HSD2 (Homo sapiens, UniProt P80365); experiment: Enzymatic assay, 11b-HSD2 dependent dehydrogenase activity; assay type: biochemical; conditions: 11b-HSD2 dehydrogenase activity, pIC50 scored 1-3, read-out: [C1] HSD2 prot Dehydro Score
# T1 sequence (P80365 1-405): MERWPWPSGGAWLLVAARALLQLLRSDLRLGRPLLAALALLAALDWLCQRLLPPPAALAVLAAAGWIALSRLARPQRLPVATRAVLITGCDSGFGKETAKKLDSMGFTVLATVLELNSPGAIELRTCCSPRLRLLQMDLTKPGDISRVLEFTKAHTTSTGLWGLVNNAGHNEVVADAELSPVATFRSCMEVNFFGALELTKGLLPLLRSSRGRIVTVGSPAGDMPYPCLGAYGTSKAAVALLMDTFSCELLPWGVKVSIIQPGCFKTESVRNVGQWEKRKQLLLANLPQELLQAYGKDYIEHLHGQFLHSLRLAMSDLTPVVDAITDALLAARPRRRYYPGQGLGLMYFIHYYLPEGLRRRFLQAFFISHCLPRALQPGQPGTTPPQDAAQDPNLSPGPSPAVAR
# Experimental: The effects on the 11b-HSD2 dependent dehydrogenase activity was studied in a reaction mixture containing 0.1M sodium phosphate buffer pH 7.5, 300 μM NAD, 100 nM cortisol (of which 2 nM is 3H-radio labelled), 1 μl drug and/or solvent and 2.5 μg recombinant protein in a final volume of 100 μl.
# (§1) All incubations were performed for 45 min at 37 C in a water bath. The reaction was stopped by adding 100 μl acetonitrile containing 20 μg corticosterone as internal standard. After centrifugation, the product formation was analysed in the supernatant by HPLC on a Hypersyl BDS-C18 column using 0.05 mM ammonium acetate/methanol (50/50) as solvent. In all of the aforementioned assays, the drugs to be tested were taken from a stock solution and tested at a final concentration ranging from […] to 3.10^−9M. From the thus obtained dose response curves, the pIC50 value was calculated and scored as follows; Score 1=pIC50 value<5, Score 2=pIC50 value in the range of 5 to 6, Score 3=pIC50 value>6. (in this table NT stands for Not Tested).
# 11b-HSD1 [2] = target: T2, 11b-HSD1 (Mus musculus, UniProt P50172); experiment: Cellular assay, 11b-HSD1 activity in differentiated 3T3-L1 cells; assay type: cell-based; conditions: 4 hour pre-incubation; for IC50: pIC50 scored 1-3, read-out: [C2] HSD1 cellular 3T3-L1 Score
# T2 construct: endogenous in cells; host or cells: 3T3-L1 (ATCC-CL-173), differentiated into adipocytes
# Experimental: The effects on 11b-HSD1 activity was measured in differentiated 3T3-L1 cells and rat hepatocytes.
# Mouse fibroblast 3T3-L1 cells (ATCC-CL-173) were seeded at a density of 16500 cells/ml in 12 well plates and grown for 7 days in DMEM medium (supplemented with 10% heat inactivated foetal calf serum, 2 mM glutamine and 25 mg gentamycin) at 37 C in a humidified 5% CO2 atmosphere. Medium was refreshed twice a week. Fibroblasts were differentiated into adipocytes at 37 C in a 5% CO2 humidified atmosphere in growth medium containing 2 μg/ml insulin, 55 μg/ml IBMX and 39.2 μg/ml dexamethasone.
# Following a 4 hour pre-incubation with test compound, 0.5 μCi ^3H-cortisone or dehydrocorticosterone, was added to the cultures. One hour later, the medium was extracted on Extrelut^3-columns with 15 ml diethyl ether and the extract was analysed by HPLC as described above.
# (§2) As for the enzymatic assays, the compounds to be tested were taken from a stock solution and tested at a final concentration ranging from […] to 3.10^−9M. From the thus obtained dose response curves, the pIC50 value was calculated and scored as follows; Score 1=pIC50 value<5, Score 2=pIC50 value in the range of 5 to 6, Score 3=pIC50 value>6. (in this table NT stands for Not Tested).
# 11b-HSD2 [3] = target: T1, 11b-HSD2; experiment: Cellular assay, 11b-HSD2 activity in HepG2 cells; assay type: cell-based; set-up: endogenous in cells; host or cells: HepG2 (ATCC HB-8065); conditions: 4 hour pre-incubation; for IC50: pIC50 scored 1-3, read-out: [C2] HSD2 cellular HepG2 Score
# Experimental: The effects on 11b-HSD2 activity was studied in HepG2 and LCC-PK1-cells HepG2-cells (ATCC HB-8065) were seeded in 12 well plates at a density of 100,000 cells/ml and grown at 37 C in a humidified 5% CO2 atmosphere in MEM-Rega-3 medium supplemented with 10% heat inactivated foetal calf serum, 2 mM L-glutamine and sodium bicarbonate). Medium was refreshed twice a week. Pig kidney cells (LCC-PK1, ATCC CRL-1392) were seeded at a density of 150,000 cells/ml in 12 well plates and grown at 37 C in a humidified 5% CO2 atmosphere in Medium 199 supplemented with Earls modified salt solution, 100 U/ml penicillin, 100 μg/ml streptomycin and 10% foetal calf serum. Medium was refreshed twice a week. Twenty four hours prior to the onset of the experiment, medium was changed by medium containing 10% charcoal stripped foetal calf serum.
# Following a 4 hour pre-incubation with test compound, 0.5 μCi ^3H-cortisol or corticosterone, was added to the cultures. One hour later, the medium was extracted on Extrelut^3-columns with 15 ml diethyl ether and the extract was analysed by HPLC as described above.
# as §2
# 11b-HSD1 [4] = target: 11b-HSD1 (Homo sapiens, UniProt P28845); experiment: Enzymatic assay, 11b-HSD1 reductase activity (conversion of cortisone into cortisol); assay type: biochemical; conditions: pIC50 scored 1-3, read-out: [C1] HSD1-prot Reduct Score
# Experimental: The effects of compounds on 11b-HSD1 dependent conversion of cortisone into cortisol (reductase activity) was studied in a reaction mixture containing 30 mM Tris-HCl buffer pH 7.2, 180 μM NADPH, 1 mM EDTA, 2 μM cortisone, 1 μl drug and/or solvent and 11 μg recombinant protein in a final volume of 100 μl.
# as §1
# T2 sequence (P50172 whole entry): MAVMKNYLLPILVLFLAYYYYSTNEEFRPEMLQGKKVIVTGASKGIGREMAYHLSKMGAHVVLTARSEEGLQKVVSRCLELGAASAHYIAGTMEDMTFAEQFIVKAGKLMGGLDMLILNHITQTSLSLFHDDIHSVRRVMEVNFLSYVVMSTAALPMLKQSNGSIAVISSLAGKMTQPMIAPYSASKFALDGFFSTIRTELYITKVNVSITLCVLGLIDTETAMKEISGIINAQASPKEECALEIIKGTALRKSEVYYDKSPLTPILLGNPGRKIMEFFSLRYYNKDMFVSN
# Chain of 11b-HSD1 (Homo sapiens, UniProt P28845) (P28845 whole entry): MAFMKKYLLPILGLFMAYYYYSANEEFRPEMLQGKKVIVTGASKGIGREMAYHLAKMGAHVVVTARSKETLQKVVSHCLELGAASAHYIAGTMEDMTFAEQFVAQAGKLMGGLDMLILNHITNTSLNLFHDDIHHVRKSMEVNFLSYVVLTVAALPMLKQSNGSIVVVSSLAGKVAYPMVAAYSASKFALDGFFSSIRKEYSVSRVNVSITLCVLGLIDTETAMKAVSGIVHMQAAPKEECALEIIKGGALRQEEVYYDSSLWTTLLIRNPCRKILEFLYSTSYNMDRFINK
IC50 (11b-HSD2 [1]) [µM],IC50 (11b-HSD1 [2]) [µM],IC50 (11b-HSD2 [3]) [µM],IC50 (11b-HSD1 [4]) [µM],[C2] HSD1 cellular 3T3-L1 Score (11b-HSD1 [2]; pIC50 scored 1-3),[C2] HSD2 cellular HepG2 Score (11b-HSD2 [3]; pIC50 scored 1-3),Structure (SMILES)
> 10,< 1,> 10,,,,CC(C)(C(=O)NC1C2CC3CC(C2)CC1C3)c1ccc(Cl)cc1 (stereo not shown) [Compound 1]
,< 1,> 10,< 1,,,Cc1cc(C)cc(C(C)(C)C(=O)NC2C3CC4CC(C3)CC2C4)c1 (stereo not shown) [Compound 3]
> 10,< 1,> 10,< 1,,,CC(C)(C(=O)NC1C2CC3CC(C2)CC1C3)c1cccc(O)c1 (stereo not shown) [Compound 5]
> 10,< 1,> 10,1 to 10,,,CC(C)(C(=O)NC1C2CC3CC(C2)CC1C3)c1cccc(OCC(=O)O)c1 (stereo not shown) [Compound 6]
,< 1,> 10,> 10,,,CN(C)CCOc1cccc(C(C)(C)C(=O)NC2C3CC4CC(C3)CC2C4)c1 (stereo not shown) [Compound 7]
> 10,1 to 10,> 10,,,,O=C(NC12CC3CC(CC(C3)C1)C2)C1(c2ccccc2)CCC1 [Compound 16]
> 10,1 to 10,> 10,,,,CC1CCCCC1NC(=O)C1(c2ccccc2)CC1 (stereo not shown) [Compound 19]
> 10,1 to 10,> 10,,,,O=C(NC1CC2CCC1C2)C1(c2ccccc2)CCCC1 (stereo not shown) [Compound 22]
,< 1,> 10,,,,CC(C(=O)NC1C2CC3CC(C2)CC1C3)c1ccccc1 (stereo not shown) [Compound 28]
,< 1,> 10,,,,CCC(C(=O)NC1C2CC3CC(C2)CC1C3)c1ccccc1 (stereo not shown) [Compound 29]
,< 1,> 10,,,,O=C(Cc1ccccc1)NC1C2CC3CC(C2)CC1C3 (stereo not shown) [Compound 30]
> 10,< 1,> 10,,,,O=C(NCC12CC3CC(CC(C3)C1)C2)C1(c2ccccc2)CC1 [Compound 31]
> 10,1 to 10,> 10,,,,O=C(NCC12CC3CC(CC(C3)C1)C2)C1(c2ccccc2)CCCC1 [Compound 35]
> 10,< 1,> 10,< 1,,,CC(C)(C(=O)NC1C2CC3CC(C2)CC1C3)c1ccc(F)cc1 (stereo not shown) [Compound 41]
> 10,1 to 10,> 10,< 1,,,COC(C(=O)NC1C2CC3CC(C2)CC1C3)c1ccccc1 (stereo not shown) [Compound 43]
> 10,< 1,> 10,> 10,,,CC(C)(C(=O)NC1CCCCCCC1)c1ccccc1 [Compound 46]
> 10,< 1,> 10,< 1,,,COc1ccc(C(C)(C)C(=O)NC2C3CC4CC(C3)CC2C4)cc1 (stereo not shown) [Compound 47]
> 10,< 1,> 10,> 10,,,CC(C)(C(=O)NC1C2CCCC1CCC2)c1ccccc1 (stereo not shown) [Compound 48]
> 10,1 to 10,> 10,> 10,,,NC(C(=O)NC1C2CC3CC(C2)CC1C3)c1ccccc1 (stereo not shown) [Compound 50]

IC50 (11b-HSD2 [1]) [µM],IC50 (11b-HSD1 [2]) [µM],IC50 (11b-HSD2 [3]) [µM],IC50 (11b-HSD1 [4]) [µM],[C2] HSD1 cellular 3T3-L1 Score (11b-HSD1 [2]; pIC50 scored 1-3),[C2] HSD2 cellular HepG2 Score (11b-HSD2 [3]; pIC50 scored 1-3),Structure (SMILES)
> 10,< 1,> 10,> 10,,,CN(C)c1ccc(C(C)(C)C(=O)NC2C3CC4CC(C3)CC2C4)cc1 (stereo not shown) [Compound 52]
> 10,< 1,> 10,> 10,,,CCCOc1cccc(C(C)(C)C(=O)NC2C3CC4CC(C3)CC2C4)c1 (stereo not shown) [Compound 53]
> 10,< 1,> 10,,,,CC1(C)C2CCC1(C)C(NC(=O)C1(c3ccccc3)CC1)C2 (stereo not shown) [Compound 55]
> 10,1 to 10,> 10,,,,CC1C(NC(=O)C2(c3ccccc3)CC2)CC2CC1C2(C)C (stereo not shown) [Compound 56]
> 10,1 to 10,> 10,,,,CC1(C)C2CCC1(C)C(NC(=O)C1(c3ccccc3)CCCC1)C2 (stereo not shown) [Compound 57]
> 10,1 to 10,> 10,,,,O=C(NC1CC2CCC1C2)C1(c2ccccc2)CC1 (stereo not shown) [Compound 64]
,< 1,> 10,< 1,,,CC(C)(C(=O)NC1C2CC3CC(C2)CC1C3)c1cccc(OCCN2CCCC2)c1 (stereo not shown) [Compound 71]
> 10,< 1,> 10,1 to 10,,,CC(C)(C(=O)NC1C2CC3CC(C2)CC1C3)c1ccc(OCC(=O)O)cc1 (stereo not shown) [Compound 72]
> 10,< 1,> 10,> 10,,,CC(C)(C(=O)NC1C2CC3CC(C2)CC1C3)c1ccc(OCCN2CCOCC2)cc1 (stereo not shown) [Compound 73]
> 10,< 1,> 10,< 1,,,COc1cccc(C(C)(C)C(=O)NC2CCC3CCCC2C3)c1 (stereo not shown) [Compound 74]
,1 to 10,> 10,< 1,,,CN(Cc1ccccc1)c1ccc(C(C)(C)C(=O)NC2C3CC4CC(C3)CC2C4)cc1 (stereo not shown) [Compound 81]
,< 1,> 10,< 1,,,COc1ccc(OC)c(C(C)(C)C(=O)NC2C3CC4CC(C3)CC2C4)c1 (stereo not shown) [Compound 93]
,< 1,> 10,> 10,,,CC(C)(C(=O)NC1C2CC3CC(C2)CC1C3)c1cc(F)cc(F)c1 (stereo not shown) [Compound 95]
,< 1,> 10,> 10,,,CC(C)(C(=O)NC1C2CC3CC(C2)CC1C3)c1ccc(Cl)cc1Cl (stereo not shown) [Compound 106]
,< 1,> 10,< 1,,,COC12CC3CC(C1)C(NC(=O)C(C)(C)c1ccccc1)C(C3)C2 (stereo not shown) [Compound 109]
,,,> 10,3 (Score 3=pIC50 value>6),1 (Score 1=pIC50 value<5),COc1ccc(OC)c(C(C)(C)C(=O)NC2C3CC4CC(C3)CC2C4)c1 (stereo not shown) [Compound 154]
> 10,< 1,> 10,,,,O=C(NC1C2CC3CC(C2)CC1C3)C1CCc2ccccc2N1 (stereo not shown) [Compound 253]
> 10,< 1,> 10,,,,O=C(NC1C2CC3CC(C2)CC1C3)[C@H]1Cc2ccccc2CN1 (stereo partly shown) [Compound 255]

# — patent US7968601B2, “Adamantyl acetamides as 11-β hydroxysteroid dehydrogenase inhibitors” (Janssen Pharmaceutica N.V., priority 2002, dated 2011)
